The results in this text go back to patent US20260240842A1, “METHODS TO PREVENT THERAPY RESISTANCE IN MELANOMA VIA BLOCKING GENOMIC INSTABILITY” (THE REGENTS OF THE UNIVERSITY OF CALIFORNIA, priority 2022, published 2026).

Experiment [1] has as its system human BRAF^V600MUT (M229, M249, M395) or NRAS^Q61MUT (M202, M207, M245) melanoma cell lines. The experiment is described as follows: Long-term clonogenic growth: emergence of acquired MAPKi-resistant colonies (DTPPs) in parental melanoma cell lines under MAPKi. The following applies: parental cell lines, FIG. 11C to 11E and FIG. 12. In kind it is cell-based. As to the method:
FIGS. 4A-4U. DNA-PKi and/or PARPi co-treatment prevents acquired MAPKi-resistance in human melanoma cell lines. FIGS. 4A to 4O: Long-term clonogenic growth of isogenic parental and acquired MAPKi-resistant BRAF^V600MUT (4A to 4H) or NRAS^Q61MUT (4I to 4O) human melanoma cell lines showing acquired-resistant colonies to BRAFi+MEKi (PLX4032 at 0.5 mM, AZD6244 at 0.5 mM in 4A and 4G; PLX4032 at 0.25 mM, AZD6244 at 0.25 mM in 4D; PLX4032 at 1 mM, AZD6244 at 1 mM in 4B, 4C, 4E, 4F and 4H) or MEKi (trametinib at 0.005 mM in I and 0.01 mM in 4J and 4N; trametinib at 0.1 mM in 4K, 4M and 4O) and their suppression by indicated co-treatments with DNA-PKi (NU7026) and/or PARPi (ABT888) at indicated concentrations. Top, representative cultures; bottom, quantifications over n=4 fields (mean±SD). Data representative of 2 to 4 independent repeats. Seeding densities (cells/well in 6-well dishes) and culture durations (days): (4A) 5,000; 31, (4B) 1,000; 17, (4C) 5,000; 18, (4D) 40,000; 40, (4E) 5,000; 14, (4F) 5,000; 12, (4G) 20,000; 30, (4H) 20,000; 21, (4I) 40,000; 30, (4J) 50,000; 31, (4K) 5,000; 17, (4L) 5,000; 22, (4M) 5,000; 16, (4N) 20.000; 16, and (4O) 5,000; 16. Data representative of 2 to 4 independent repeats. FIGS. 4P and 4Q: Western blot, MTT assay (upper), and clonogenic growth assay (lower) of M245 cells transduced by lentivirus harboring shVector control or shRNAs of PRKDC (4P) or LIG4 (4Q). TUBULIN, loading control. Clonogenic growth with vehicle (14 days, 5,000 cells/well in 6-well dishes) or MEKi (29 days, 50,000 cells/well in 6-well dishes) treatments. MEKi, trametinib at 0.01 μM. Representative results of two independent experiments; quantification of n=4 fields (mean±SD). FIGS. 4R and 4S: As in 4A and 4J, respectively, except DNA-PKi and/or PARPi co-treatments were performed in M229 (4R) and M245 (4S) at a later stage of MAPKi treatment (see timepoint schema). Inhibitor concentrations for M229: BRAFi+MEKi (PLX4032 at 0.5 μM, AZD6244 at 0.5 μM), NU7026 (8 μM), ABT888 (4 μM) and NU7026+ABT888 (4 μM+4 μM). Inhibitor concentrations for M245: MEKi (trametinib at 0.01 μM), NU7026 (5 μM), ABT888 (1 μM) and NU7026+ABT888 (5 μM+1 μM). Left, representative cultures; right, quantifications over n=4 fields (mean±SD). Data representative of 2 independent repeats. FIGS. 4T and 4U: As in 4A and 4J, respectively, except DNA-PKi and/or PARPi co-treatments were performed in M229 (4T) and M245 cells (4U) at the same concentrations in R and S for the entire durations (day 1-28 in 4T; day 1-30 in 4U), the first half (day 1-14 in T; day 1-15 in 4U) or the second half (day 14-28 in 4T: day 15-30 in 4U) of the total treatment course. Top, representative cultures; bottom, quantifications over n=4 fields (mean±SD). Data representative of 2 independent repeats. P values (one-way ANOVA followed by Tukey's multiple comparison test) comparing indicated cultures versus MAPKi-only cultures (4A to 4O and 4R to 4U) or shVector culture (4P and 4Q): *, p<0.05; **, p<0.01: ***, p<0.001.
FIGS. 12A-12F. DNA-PKi and/or PARPi co-treatment prevents acquired MAPKi-resistance in human melanoma cell lines. FIGS. 12A to 12F: Long-term clonogenic growth of BRAF^V600MUT (12A, 12C and 12E) or NRAS^Q61MUT (12B, 12D and 12F) cell lines showing acquired-resistant colonies to BRAFi+MEKi (PLX4032 at 0.5 mM, AZD6244 at 0.5 mM for M229 and M395; PLX4032 at 0.25 mM, AZD6244 at 0.25 mM for M249) or MEKi (trametinib at 0.005 mM for M202 and 0.01 mM for M207 and M245) and their suppression by indicated co-treatments with DNA-PKi (VX984 in 12A and 12B; AZD7648 in 12C and 12D) and/or PARPi (olaparib in 12E and 12F) at indicated concentrations. Top, representative cultures; bottom, quantifications over n=4 fields (mean±SD). Data representative of 2 independent repeats. Seeding densities (cells/well in 6-well dishes) and culture durations (days): M202 (40,000, 30), M207 (20,000, 16), M229 (5,000, 32), M245 (50,000, 31), M249 (40,000, 40), and M395 (20,000, 30). […]

For the next experiment, the system named is γH2AX. The experiment in a line: Immunofluorescence of γH2AX nuclear foci in early on-treatment PDX tumors. It counts as in vivo, NSG mice. Particulars: short-term MEKi treatment in Mel_PDX1; FIG. 13G. The text has this: FIGS. 13A-13H. In vivo impacts of DNA-PKi when combined with MAPKi. FIGS. 13A and 13B: Long-term follow-up of tumor volumes (13A, BRAFi+MEKi, n=5 tumors; BRAFi+MEKi+DNA-PKi, n=6 tumors) (13B, MEKi, n=6 tumors; MEKi+DNAP-PKi, n=6 tumors) and average mice body weights for 13A and 13B. Related to experiments in FIGS. 7B and 7E, respectively. FIGS. 13C and 13D, Tumor volumes (mean±SEM) of two examples of tumor models treated short-term with vehicle or indicated single versus combined agents. Inhibitors and dosages are identical to those in FIGS. 7C and 7E, respectively. The numbers of tumors and their sizes are shown in the photographs (right) taken at the times of tumor harvest (end points). FIGS. 13E to 13G: Immunofluorescence of p-ERK (13E), p-DNA-PKcs (S2056) (13F), or γH2AX (13G) levels in Mel_PDX1 tumor model, treated with vehicle or indicated single versus combined agents for 11 days (shown in 13C). DAPI, nuclear stain. Scale bar, 50 μm (13E) and 20 μm (13F and 13G). Representative images shown for two tumors analyzed per group. Quantification of p-DNA-PKcs signals obtained by taking the average of positively stained foci per nucleus (13F, representative of 4 fields). Quantification of γH2AX signals analyzed either by percentage of cells with γH2AX foci or percentage of cells with greater than 5 γH2AX foci (13G, representative of 4 fields). […]

`Cc1cc2ncnn2cc1Nc1ncc2c(n1)n(C1CCOCC1)c(=O)n2C` [AZD7648]: in experiment [1], the “combinatorial efficacy of next-generation DNA-PKi and PARPi with MAPKi” value was “corroborated the combinatorial efficacy”. For the compound `O=C(c1cc(Cc2n[nH]c(=O)c3ccccc23)ccc1F)N1CCN(C(=O)C2CC2)CC1` [olaparib], the “combinatorial efficacy of next-generation DNA-PKi and PARPi with MAPKi” value in experiment [1] was “corroborated the combinatorial efficacy”. `CC(=O)Nc1cccc(-n2c(=O)n(C3CC3)c(=O)c3c(Nc4ccc(I)cc4F)n(C)c(=O)c(C)c32)c1` [trametinib]: the “tumor cells with gH2AX nuclear foci” value with γH2AX is given as over 50%.
